According to patent US12186398B2, “Non-ionic PVP-PLA block copolymers and liquid pharmaceutical compositions derived therefrom” (ALTUS FORMULATION INC., priority 2017, dated 2025):
Like-named read-outs stand apart in the source and are kept apart here.

Assays:
[1] = Literature IV PK of FLU solution in rats (Park and Kim; Knihinicki et al); format: in vivo; settings: Park and Kim data fitted to 2 compartmental model
Text: The fitted results obtained in the JRF study were then compared to those in the literature, generated after administering a non-micellar low concentration simple FLU solution IV to rats. This was undertaken to determine potential differences in FLU pharmacokinetics induced by the micellar formulation.
The results from the JRF study were then compared to literature values for FLU PK administered as an IV solution as generated by Park and Kim (1) and Knihinicki et al (2); the comparison is shown in Table 39.
For comparative purposes, the rat PK data for a FLU solution generated by Park and Kim (1) were also fitted to the 2 compartmental model (FIG. 22 and Table 41).

[2] = Extrapolation to human IV 2 compartmental PK parameters; settings: estimated human iv, PPI 1501 by rat difference ratio, solution from literature oral PK
Text: Both sets of rodent data were then extrapolated using published human FLU PK parameters to estimate the PK of FLU post IV administration of PPI 1501 or non-formulated FLU to humans.
Assuming the plasma PK profile of FLU mediated by IV PPI 1501 in the rat is translatable to human, i.e. that the same PK parameter difference ratios for FLU in PPI 1501 observed in the rat apply in humans, then the human IV PK parameters for FLU in PPI 1501 can be estimated. This may be achieved by simple multiplication of the difference ratios provided in Table 41 (last column) to again obtain the comparative human PK parameter values FLU in PPI 1501 versus those obtained from injection of the simple solution; such data may also be compared to data obtained by injecting humans with the prodrug FA (Table 42).
The human IV PK parameters of FLU in solution were estimated based on the oral PK parameters of FLU and its estimated oral bioavailability (project 1 report, Duan, 2015, Table 42, ref 3-8).

[3] = system: Human red blood cells (RBC); experiment: In vitro haemolysis; format: cell-based; settings: 5 mg/mL, 37° C., 60 min
Protocol: For example suspended RBCs isolated from whole human blood may be mixed with non-formulated cargo molecules or test formulations comprising the cargo molecule at a given final concentration with respect to the cargo molecule incubated at 37° C. for 60 minutes, and centrifuged to remove intact RBCs. […] Human red blood cells (RBC) were isolated by centrifugation from whole blood collected in vaccutainer containing EDTA. […] Freeze-dried formulations were reconstituted in water and then diluted to the desired concentrations with PBS.

[4] = FLU solution, rats, IV […], NCA, cited from earlier work
[5] = human iv FA, values from project 1 report; cited from earlier work

CC(C(=O)O)c1ccc(-c2ccccc2)c(F)c1 (stereo not drawn) [FLU, flurbiprofen]
t1/2Alpha ([1]; IV […]): 5.4 min
t1/2Beta ([1]; IV […]): 2.73 h
AUC(0-inf) ([1]; rat, plasma, IV 2.5 mg/kg): 51400 ng·h/mL
AUC(0-t) ([1]; rat, plasma, IV 2.5 mg/kg): 45300 ng·h/mL
C0 ([1]; rat, plasma, IV 2.5 mg/kg): 49800 ng/mL
MRT ([1]; rat, plasma, IV 2.5 mg/kg): 3.57 h
clearance ([1]; rat, plasma, IV 2.5 mg/kg): 0.81 mL/min/kg
Vd ([1]; rat, plasma, IV 2.5 mg/kg, read-out: Vss): 0.174 L/kg
CL [2]: 0.967 L/h
CL2 [2]: 0.343 L/h
MRT (est. based on 2 compartment model) [2]: 7.43 h
V [2]: 4.984 L
V2 [2]: 2.199 L
absorbance at 540 nm [3]: 0.54±0.03
percent haemolysis ([3]; triplicate ± standard deviation): 92.1±17.2%
Vss ([4]; Knihinicki et al): 0.22 L/kg
Vz ([4]; Knihinicki et al): 0.239 L/kg
t1/2 ([4]; Knihinicki et al): 3.07 h
Vss ([4]; Park & Kim): 0.15678 L/kg
Vz ([4]; Park & Kim): 0.19231 L/kg
t1/2 ([4]; Park & Kim): 2.78 h

flurbiprofen axetil [FA]
CL [5]: 1.14 L/h
CL2 [5]: 4.40 L/h
Ka [5]: 58 h⁻¹
MRT (est. based on 2 compartment model) [5]: 7.36 h
V [5]: 5.11 L
V2 [5]: 3.28 L
